Reference: PubChem BioAssay AID248 (DTP/NCI, 2004)
“And” between values parts separate entries of the source, which are not always exact repeats. Equal values may be shown once. Toxic doses and inconclusive results are not listed.

Test system: L1210 leukemia ip in BDF1 mice, survival T/C
Test: NCI In Vivo Anticancer Drug Screen. Data for tumor model L1210 Leukemia (intraperitoneal) in B6D2F1 (BDF1) mice
Settings: higher = longer survival
Procedure, shortened: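 Tumor was transplanted into mice, which were then dosed with test compound or vehicle alone. Survival was recorded for each group, and the treated figure was expressed relative to the control figure.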

[1] = endpoint: mean survival time, dose: 30.0 mg/kg/injection, schedule: Q01DX Z (ip), vehicle: carboxymethylcellulose (CMC)
[2] = endpoint: mean survival time, dose: 100.0 mg/kg/injection, schedule: Q01DX009 (ip), vehicle: Klucel (hydroxypropylcellulose) (HPC)

CC[C@H]1CN2CCc3cc(OC)c(OC)cc3[C@@H]2C[C@@H]1C[C@H]1NCCc2cc(O)c(OC)cc21
T/C (endpoint: mean survival time, dose: 0.5 mg/kg/injection, schedule: Q01DX015 (ip), vehicle: saline): 105 % of control and 119 % of control
T/C (endpoint: mean survival time, dose: 1.0 mg/kg/injection, schedule: Q01DX009 (ip), vehicle: saline): 116 % of control
T/C (endpoint: mean survival time, dose: 1.0 mg/kg/injection, schedule: Q01DX015 (ip), vehicle: saline): 115 % of control and 120 % of control
T/C (endpoint: mean survival time, dose: 2.0 mg/kg/injection, schedule: Q01DX009 (ip), vehicle: saline): 115 % of control
T/C (endpoint: mean survival time, dose: 2.0 mg/kg/injection, schedule: Q## X003 (ip), vehicle: saline): 104 % of control
T/C (endpoint: mean survival time, dose: 2.0 mg/kg/injection, schedule: Q## X024 (ip), vehicle: saline): 114 % of control
T/C (endpoint: mean survival time, dose: 3.0 mg/kg/injection, schedule: Q01DX001 (oral), vehicle: saline): 107 % of control
T/C (endpoint: mean survival time, dose: 3.75 mg/kg/injection, schedule: Q01DX015 (ip), vehicle: saline): 153 % of control
T/C (endpoint: mean survival time, dose: 4.0 mg/kg/injection, schedule: Q01DX001 (ip), vehicle: saline): 113 % of control
T/C (endpoint: mean survival time, dose: 4.0 mg/kg/injection, schedule: Q01DX009 (ip), vehicle: saline): 115 % of control
T/C (endpoint: mean survival time, dose: 4.0 mg/kg/injection, schedule: Q01DX015 (ip), vehicle: saline): 150 % of control
T/C (endpoint: mean survival time, dose: 4.0 mg/kg/injection, schedule: Q04DX003 (ip), vehicle: saline): 116 % of control
T/C (endpoint: mean survival time, dose: 4.0 mg/kg/injection, schedule: Q## X002 (ip), vehicle: saline): 103 % of control
T/C (endpoint: mean survival time, dose: 4.0 mg/kg/injection, schedule: Q## X003 (ip), vehicle: saline): 103 % of control
T/C (endpoint: mean survival time, dose: 4.0 mg/kg/injection, schedule: Q## X008 (ip), vehicle: saline): 116 % of control
T/C (endpoint: mean survival time, dose: 4.0 mg/kg/injection, schedule: Q## X016 (ip), vehicle: saline): 93 % of control
T/C (endpoint: mean survival time, dose: 4.0 mg/kg/injection, schedule: Q## X024 (ip), vehicle: saline): 122 % of control
T/C (endpoint: mean survival time, dose: 6.0 mg/kg/injection, schedule: Q01DX001 (oral), vehicle: saline): 103 % of control
T/C (endpoint: mean survival time, dose: 8.0 mg/kg/injection, schedule: Q01DX001 (ip), vehicle: saline): 111 % of control
T/C (endpoint: mean survival time, dose: 8.0 mg/kg/injection, schedule: Q01DX005 (ip), vehicle: saline): 157 % of control
T/C (endpoint: mean survival time, dose: 8.0 mg/kg/injection, schedule: Q01DX009 (ip), vehicle: saline): 112 % of control and 86 % of control
T/C (endpoint: mean survival time, dose: 8.0 mg/kg/injection, schedule: Q04DX003 (ip), vehicle: saline): 118 % of control
T/C (endpoint: mean survival time, dose: 8.0 mg/kg/injection, schedule: Q## X002 (ip), vehicle: saline): 119 % of control
T/C (endpoint: mean survival time, dose: 8.0 mg/kg/injection, schedule: Q## X003 (ip), vehicle: saline): 123 % of control
T/C (endpoint: mean survival time, dose: 8.0 mg/kg/injection, schedule: Q## X008 (ip), vehicle: saline): 111 % of control
T/C (endpoint: mean survival time, dose: 8.0 mg/kg/injection, schedule: Q## X016 (ip), vehicle: saline): 103 % of control
T/C (endpoint: mean survival time, dose: 8.0 mg/kg/injection, schedule: Q## X024 (ip), vehicle: saline): 101 % of control
T/C (endpoint: mean survival time, dose: 12.0 mg/kg/injection, schedule: Q01DX001 (oral), vehicle: saline): 96 % of control
T/C (endpoint: mean survival time, dose: 15.0 mg/kg/injection, schedule: Q01DX015 (ip), vehicle: saline): 104 % of control
T/C (endpoint: mean survival time, dose: 16.0 mg/kg/injection, schedule: Q01DX001 (ip), vehicle: saline): 118 % of control
T/C (endpoint: mean survival time, dose: 16.0 mg/kg/injection, schedule: Q01DX005 (ip), vehicle: saline): 162 % of control
T/C (endpoint: mean survival time, dose: 16.0 mg/kg/injection, schedule: Q01DX009 (ip), vehicle: saline): 123 % of control
T/C (endpoint: mean survival time, dose: 16.0 mg/kg/injection, schedule: Q01DX015 (ip), vehicle: saline): 102 % of control
T/C (endpoint: mean survival time, dose: 16.0 mg/kg/injection, schedule: Q## X002 (ip), vehicle: saline): 112 % of control
T/C (endpoint: mean survival time, dose: 16.0 mg/kg/injection, schedule: Q## X016 (ip), vehicle: saline): 107 % of control
T/C (endpoint: mean survival time, dose: 16.0 mg/kg/injection, schedule: Q## X024 (ip), vehicle: saline): 86 % of control
T/C (endpoint: mean survival time, dose: 24.0 mg/kg/injection, schedule: Q01DX001 (oral), vehicle: saline): 102 % of control
T/C (endpoint: mean survival time, dose: 32.0 mg/kg/injection, schedule: Q01DX001 (ip), vehicle: saline): 111 % of control
T/C (endpoint: mean survival time, dose: 32.0 mg/kg/injection, schedule: Q04DX003 (ip), vehicle: saline): 123 % of control
T/C (endpoint: mean survival time, dose: 48.0 mg/kg/injection, schedule: Q01DX001 (oral), vehicle: saline): 121 % of control
T/C (endpoint: mean survival time, dose: 64.0 mg/kg/injection, schedule: Q01DX001 (ip), vehicle: saline): 118 % of control
T/C (endpoint: median survival time, dose: 4.0 mg/kg/injection, schedule: Q04DX003 (ip), vehicle: alkali diluted with saline): 106 % of control
T/C (endpoint: median survival time, dose: 8.0 mg/kg/injection, schedule: Q04DX003 (ip), vehicle: alkali diluted with saline): 113 % of control
T/C (endpoint: median survival time, dose: 16.0 mg/kg/injection, schedule: Q04DX003 (ip), vehicle: alkali diluted with saline): 121 % of control

NNC(=O)CCCCCO
T/C (endpoint: mean survival time, dose: 100.0 mg/kg/injection, schedule: Q01DX009 (ip), vehicle: saline with Tween-80): 102 % of control
T/C (endpoint: mean survival time, dose: 200.0 mg/kg/injection, schedule: Q01DX009 (ip), vehicle: saline with Tween-80): 100 % of control
T/C (endpoint: mean survival time, dose: 400.0 mg/kg/injection, schedule: Q01DX009 (ip), vehicle: saline with Tween-80): 100 % of control

CCCN=C(N)c1ccc(N=C(N)c2ccc(N=C(N)c3ccc(C(N)=NCCC)cc3)cc2)cc1
T/C (endpoint: mean survival time, dose: 15.0 mg/kg/injection, schedule: Q01DX Z (ip), vehicle: carboxymethylcellulose (CMC)): 154 % of control
T/C [1]: 88 % of control
T/C (endpoint: mean survival time, dose: 50.0 mg/kg/injection, schedule: Q01DX Z (oral), vehicle: carboxymethylcellulose (CMC)): 110 % of control
T/C (endpoint: mean survival time, dose: 100.0 mg/kg/injection, schedule: Q01DX Z (oral), vehicle: carboxymethylcellulose (CMC)): 109 % of control
T/C (endpoint: mean survival time, dose: 200.0 mg/kg/injection, schedule: Q01DX Z (oral), vehicle: carboxymethylcellulose (CMC)): 106 % of control
T/C (endpoint: mean survival time, dose: 400.0 mg/kg/injection, schedule: Q01DX Z (oral), vehicle: carboxymethylcellulose (CMC)): 109 % of control

NC(Cc1ccc(O)cc1)C(=O)N/N=C/c1ccc(N(CCCl)CCCl)cc1 (centres undefined)
T/C (endpoint: mean survival time, dose: 25.0 mg/kg/injection, schedule: Q01DX009 (ip), vehicle: Klucel (hydroxypropylcellulose) (HPC)): 101 % of control
T/C (endpoint: mean survival time, dose: 50.0 mg/kg/injection, schedule: Q01DX009 (ip), vehicle: Klucel (hydroxypropylcellulose) (HPC)): 113 % of control
T/C [2]: 106 % of control
T/C (endpoint: mean survival time, dose: 100.0 mg/kg/injection, schedule: Q04DX003 (ip), vehicle: Klucel (hydroxypropylcellulose) (HPC)): 107 % of control
T/C (endpoint: mean survival time, dose: 200.0 mg/kg/injection, schedule: Q04DX003 (ip), vehicle: Klucel (hydroxypropylcellulose) (HPC)): 102 % of control

CN(C)c1ccc2c(c1)oc(=O)c1ccccc12
T/C (endpoint: mean survival time, dose: 50.0 mg/kg/injection, schedule: Q01DX001 (ip), vehicle: carboxymethylcellulose (CMC)): 93 % of control
T/C (endpoint: mean survival time, dose: 100.0 mg/kg/injection, schedule: Q01DX001 (ip), vehicle: carboxymethylcellulose (CMC)): 104 % of control
T/C (endpoint: mean survival time, dose: 200.0 mg/kg/injection, schedule: Q01DX001 (ip), vehicle: carboxymethylcellulose (CMC)): 112 % of control
T/C (endpoint: mean survival time, dose: 400.0 mg/kg/injection, schedule: Q01DX001 (ip), vehicle: carboxymethylcellulose (CMC)): 91 % of control

Cc1cc(CC#N)c(C)c([N+](=O)[O-])c1
T/C (endpoint: mean survival time, dose: 25.0 mg/kg/injection, schedule: Q04DX003 (ip), vehicle: Klucel (hydroxypropylcellulose) (HPC)): 96 % of control
T/C (endpoint: mean survival time, dose: 50.0 mg/kg/injection, schedule: Q04DX003 (ip), vehicle: Klucel (hydroxypropylcellulose) (HPC)): 89 % of control

COC(=O)C1C2CC(O)C(C2)C1C(=O)OC (centres undefined)
T/C (endpoint: mean survival time, dose: 12.5 mg/kg/injection, schedule: Q04DX003 (ip), vehicle: saline with Tween-80): 95 % of control
T/C (endpoint: mean survival time, dose: 25.0 mg/kg/injection, schedule: Q04DX003 (ip), vehicle: saline with Tween-80): 103 % of control
T/C (endpoint: mean survival time, dose: 50.0 mg/kg/injection, schedule: Q04DX003 (ip), vehicle: saline with Tween-80): 94 % of control

CN(N=O)C(=O)Nc1ccc(NC(=O)N(C)N=O)cc1
T/C [1]: 162 % of control
T/C (endpoint: mean survival time, dose: 40.0 mg/kg/injection, schedule: Q01DX Z (ip), vehicle: carboxymethylcellulose (CMC)): 151 % of control
T/C (endpoint: mean survival time, dose: 45.0 mg/kg/injection, schedule: Q01DX001 (ip), vehicle: carboxymethylcellulose (CMC)): 120 % of control
T/C (endpoint: mean survival time, dose: 50.0 mg/kg/injection, schedule: Q01DX Z (ip), vehicle: carboxymethylcellulose (CMC)): 97 % of control
T/C (endpoint: mean survival time, dose: 360.0 mg/kg/injection, schedule: Q01DX001 (ip), vehicle: carboxymethylcellulose (CMC)): 91 % of control

OC(CSc1ccccc1)(c1ccccc1)c1ccccc1
T/C (endpoint: mean survival time, dose: 56.3 mg/kg/injection, schedule: Q03DX002 (ip), vehicle: saline with Tween-80): 121 % of control
T/C (endpoint: mean survival time, dose: 112.0 mg/kg/injection, schedule: Q03DX002 (ip), vehicle: saline with Tween-80): 102 % of control

COC(=O)c1cc(C)cc(N(c2ccccc2N)S(=O)(=O)c2ccc(C)cc2)c1C
T/C (endpoint: mean survival time, dose: 100.0 mg/kg/injection, schedule: Q01DX001 (ip), vehicle: saline): 92 % of control
T/C (endpoint: mean survival time, dose: 200.0 mg/kg/injection, schedule: Q01DX001 (ip), vehicle: saline): 92 % of control

CCCCCCCCCCCCCCCCOc1ccc(C2=NCC(C)S2)c(C)c1 (centres undefined)
T/C [2]: 101 % of control
T/C (endpoint: mean survival time, dose: 200.0 mg/kg/injection, schedule: Q01DX009 (ip), vehicle: Klucel (hydroxypropylcellulose) (HPC)): 96 % of control
T/C (endpoint: mean survival time, dose: 400.0 mg/kg/injection, schedule: Q01DX009 (ip), vehicle: Klucel (hydroxypropylcellulose) (HPC)): 97 % of control
